# Patent US6461997B1, “Triazole sulfones having herbicidal activity” (Monsanto Technology LLC, priority 1999, dated 2002)
# Experiments:
# SINAR (wild mustard) = experiment: Pre-emergence herbicidal activity, cool season; type: in vivo, Sinapis arvensis; conditions: lowest tested rate with 80% or greater inhibition; rates 300, 100, 30, 10 g/ha; about 14 days
# Procedure, shortened: (§1)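 GR80 values derive from percent inhibition relative to untreated plants, read roughly 14 days after sowing and pre-emergence soil-surface treatment (compound in 50:50 acetone/water; rates typically 10, 30, 100, 300 g/ha). Warm-season weeds grew at 30/21° C day/night, cool-season ones at 18/13° C; an asterisk marks activity without reaching 80% at the highest rate.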
# SASKR (russian thistle) = experiment: Pre-emergence herbicidal activity, cool season; type: in vivo, Salsola kali; conditions: lowest tested rate with 80% or greater inhibition; rates 300, 100, 30, 10 g/ha; about 14 days
# Procedure, shortened: as §1
# [1] = tested on: GALAP (catchweed bedstraw); experiment: Pre-plant incorporated (PPI) herbicidal activity, cool season; type: in vivo, Galium aparine; conditions: for PPI activity GR80, GALAP: pre-plant incorporated, lowest tested rate with 80% or greater inhibition, about 14 days
# Experimental: (§2) In another set of tests, the pre-plant incorporated (PPI) activity of compounds of this invention was evaluated on the same species as for the pre-emergence tests described above. In the PPI tests the following procedure, designed to simulate PPI application, was used.
# (§3) A pre-prepared topsoil mixture (described above) was placed in a pot and compacted to a depth of 1.0 to 1.25 cm from the top of the pot. Seeds of each of several monocotyledonous and dicotyledonous annual plant species were placed on top of the soil. A sufficient quantity of soil to cover the seeds and level fill the pot was weighed into an open container. A known amount of the test compound was dissolved or suspended in an organic solvent and applied by spraying to this cover soil. The cover soil was thoroughly mixed to distribute the test compound throughout the cover soil, and was then applied as a cover layer over the seeds. Untreated soil was used as a cover layer for control pots. After treatment the plants were placed in a greenhouse where they received 0.64 cm of overhead irrigation. All subsequent watering consisted of a light overhead mist and/or subirrigation as needed for germination and growth. Tables 9 and 10 below relate to warm season plant species which were placed after pre-emergence treatment in a greenhouse with a 30/21° C. day/night temperature regime. Tables 11 and 12 below relates to cool season plant species placed after pre-emergence treatment in a greenhouse or growth chamber with an 18/13° C. day/night temperature regime. Only the compounds of Examples 1, 6, 8, 11, 13 and 15-20 were included in PPI tests.
# (§4) Approximately 14 days after planting and treating, the plants were observed and herbicidal efficacy recorded as percent inhibition by comparison with untreated plants.
# ALOMY (blackgrass) = experiment: as above; type: in vivo, Alopecurus myosuroides; conditions: for PPI activity GR80, ALOMY: pre-plant incorporated, lowest tested rate with 80% or greater inhibition, about 14 days
# Experimental: as §2, §3, §4
# [2] = tested on: AGSST (creeping bentgrass); experiment: as above; type: in vivo, Agrostis stolonifera; conditions: for PPI activity GR80, AGSST: pre-plant incorporated, lowest tested rate with 80% or greater inhibition, about 14 days
# Experimental: as §2, §3, §4
# corn (ZEAMX) = experiment: Selectivity test, PPI, warm season crop; type: in vivo, Zea mays; conditions: PPI application; for inhibition at 10 g/ha / inhibition at 30 g/ha / inhibition at 100 g/ha / inhibition at 300 g/ha / inhibition at 900 g/ha: Zea mays, read-out: Percent inhibition ZEAMX
# Experimental: as §3, §4
# Additional pre-emergence and PPI tests were conducted by the procedures described above, on warm and cool season weed species in the presence of crop species, to assess herbicidal selectivity. Crop species included in warm season tests were corn (Zea mays, ZEAMX), rice (Oryza sativa, ORYSA) and soybean (Glycine max, GLYMX). Crop species included in cool season tests were wheat (Triticum aestivum, TRZAW), barley (Hordeunm vulgare, HORVX) and oilseed rape (Brassica napus, BRSNS).
# Tables 15 and 16 relate to pre-emergence and PPI tests respectively on warm season species. Table 17 relates to pre-emergence tests on cool season species.
# [3] = Galium aparine, weed, PPI application, 30 g/ha, read-out: Percent inhibition GALAP
# [4] = Galium aparine, weed, PPI application, 100 g/ha, read-out: Percent inhibition GALAP
# [5] = Galium aparine, weed, PPI application, 300 g/ha, read-out: Percent inhibition GALAP
# [6] = Galium aparine, weed, PPI application, 900 g/ha, read-out: Percent inhibition GALAP
# [7] = Alopecurus myosuroides, weed, PPI application, 30 g/ha, read-out: Percent inhibition ALOMY
# [8] = Alopecurus myosuroides, weed, PPI application, 100 g/ha, read-out: Percent inhibition ALOMY
# [9] = Alopecurus myosuroides, weed, PPI application, 300 g/ha, read-out: Percent inhibition ALOMY
# [10] = Alopecurus myosuroides, weed, PPI application, 900 g/ha, read-out: Percent inhibition ALOMY
# [11] = Agrostis stolonifera, weed, PPI application, 30 g/ha, read-out: Percent inhibition AGSST
# [12] = Agrostis stolonifera, weed, PPI application, 100 g/ha, read-out: Percent inhibition AGSST
# [13] = Agrostis stolonifera, weed, PPI application, 300 g/ha, read-out: Percent inhibition AGSST
# [14] = Agrostis stolonifera, weed, PPI application, 900 g/ha, read-out: Percent inhibition AGSST
# [15] = weed, PPI application, 100 g/ha
# [16] = weed, PPI application, 300 g/ha
# [17] = weed, PPI application, 900 g/ha
Structure (SMILES),"Pre-emergence activity GR80, SINAR (SINAR (wild mustard))","Pre-emergence activity GR80, SASKR (SASKR (russian thistle))","inhibition at 30 g/ha [1, 3]","inhibition at 100 g/ha [1, 4]","inhibition at 300 g/ha [1, 5]","inhibition at 900 g/ha [1, 6]","PPI activity GR80, GALAP [1]",inhibition at 30 g/ha (ALOMY (blackgrass); [7]),inhibition at 100 g/ha (ALOMY (blackgrass); [8]),inhibition at 300 g/ha (ALOMY (blackgrass); [9]),inhibition at 900 g/ha (ALOMY (blackgrass); [10]),"PPI activity GR80, ALOMY (ALOMY (blackgrass))","inhibition at 30 g/ha [2, 11]","inhibition at 100 g/ha [2, 12]","inhibition at 300 g/ha [2, 13]","inhibition at 900 g/ha [2, 14]","PPI activity GR80, AGSST [2]",inhibition at 10 g/ha (corn (ZEAMX)),inhibition at 30 g/ha (corn (ZEAMX); 30 g/ha),inhibition at 100 g/ha (corn (ZEAMX); 100 g/ha),other results
"CCN(CC)C(=O)n1cnc(S(=O)(=O)C(F)(F)Br)n1 [Example 1, 3-(bromodifluoromethylsulfonyl)-1-(N,N-diethylcarbamoyl)-1,2,4-triazole]",100 g/ha,300 g/ha,70%,100%,100%,100%,100 g/ha,80%,99%,100%,100%,100 g/ha,100%,100%,100%,100%,30 g/ha,0%,0%,0%,inhibition at 300 g/ha (corn (ZEAMX); 300 g/ha): 25%; inhibition at 900 g/ha (corn (ZEAMX); 900 g/ha): 70%
CCN(CC)C(=O)n1cnc(S(=O)(=O)C(F)(F)C(F)(F)SC)n1 [Example 14],[empty],[empty],,,,,,,,,,,,,,,,,,,
CCN(CC)C(=O)n1cnc(S(=O)(=O)C(F)(F)F)n1 [Example 2],30 g/ha,100 g/ha,,,,,,,,,,,,,,,,,,,"Percent inhibition GALAP ([1]; weed, PPI application, 30 g/ha): 60%; Percent inhibition GALAP [1, 15]: 100%; Percent inhibition GALAP [1, 16]: 100%; Percent inhibition GALAP [1, 17]: 100%; Percent inhibition ALOMY (ALOMY (blackgrass); weed, PPI application, 30 g/ha): 50%; Percent inhibition ALOMY (ALOMY (blackgrass); [15]): 90%; Percent inhibition ALOMY (ALOMY (blackgrass); [16]): 100%; Percent inhibition ALOMY (ALOMY (blackgrass); [17]): 100%; Percent inhibition AGSST ([2]; weed, PPI application, 30 g/ha): 100%; Percent inhibition AGSST [2, 15]: 99%; Percent inhibition AGSST [2, 16]: 100%; Percent inhibition AGSST [2, 17]: 100%; Percent inhibition ZEAMX (corn (ZEAMX); 30 g/ha): 5%; Percent inhibition ZEAMX (corn (ZEAMX); 100 g/ha): 10%; Percent inhibition ZEAMX (corn (ZEAMX); 300 g/ha): 50%; Percent inhibition ZEAMX (corn (ZEAMX); 900 g/ha): 80%"
C=C(C)CC(F)(F)S(=O)(=O)c1ncn(C(=O)N(CC)CC)n1 [Example 18],300 g/ha,300 g/ha,60%,70%,100%,100%,100 g/ha,60%,30%,80%,80%,100 g/ha,60%,100%,99%,100%,10 g/ha,0%,0%,10%,"inhibition at 10 g/ha ([1]; Galium aparine, weed, PPI application, 10 g/ha, read-out: Percent inhibition GALAP): 70%; inhibition at 10 g/ha (ALOMY (blackgrass); Alopecurus myosuroides, weed, PPI application, 10 g/ha, read-out: Percent inhibition ALOMY): 60%; inhibition at 10 g/ha ([2]; Agrostis stolonifera, weed, PPI application, 10 g/ha, read-out: Percent inhibition AGSST): 100%; inhibition at 300 g/ha (corn (ZEAMX); 300 g/ha): 15%; inhibition at 900 g/ha (corn (ZEAMX); 900 g/ha): 20%"
